According to patent publication US6156700A, “3-(1,2-Benzisothiazol- and isoxazol-5-yl)-2,4(1H,3H)-pyrimidinedione or thione and 3-(1,2-benzisothiazol- and isoxazol-5-yl)-4(3H)-pyrimidinone or thione herbicidal agents” (American Cyanmid Company, priority 1998, dated 2000):

What was measured:
Experiment in all cases: Preemergence herbicidal evaluation
ABUTH = format: in vivo; parameters: scale not given here
Protocol: (§1) The preemergence and postemergence herbicidal properties of certain compounds of the present invention are compared with certain compounds disclosed in U.S. Pat. Nos. 5,484,763 and 5,523,278. The evaluations are performed as described in Examples 185 and 186. Data in Tables V and VI are reported by the compound number given in Example 185 for the compounds of this invention or by comparative compound letter for the compounds disclosed in U.S. Pat. Nos. 5,484,763 and 5,523,278.

AMBEL = format: in vivo; parameters: scale not given here
Protocol: as §1

CASOB = format: in vivo; parameters: scale not given here
Protocol: as §1

CHEAL = format: in vivo; parameters: scale not given here
Protocol: as §1

ECHCG = format: in vivo; parameters: scale not given here
Protocol: as §1

GALAP = format: in vivo; parameters: scale not given here
Protocol: as §1

GLXMAW = format: in vivo; parameters: scale not given here
Protocol: as §1

SETVI = format: in vivo; parameters: scale not given here
Protocol: as §1

TRZAWR = format: in vivo; parameters: scale not given here
Protocol: as §1

ZEAMX = format: in vivo; parameters: scale not given here
Protocol: as §1

IPOHE = format: in vivo
Protocol: as §1

ORYSAT = format: in vivo, Oryza sativa; parameters: scale not given here
Protocol: as §1

Compound: CN(C)C(=O)c1nsc2ccc(-n3c(=O)cc(C(F)(F)F)n(C)c3=O)cc12 [Compound 329, 1,2-Benzisothiazole-3-carboxamide,5-[3,6-dihydro-3-methyl-2,6-dioxo-4-(trifluoromethyl)-1(2H)-pyrimidinyl]-N,N-dimethyl-]
- herbicidal effect rating (ABUTH; 0.0156-0.0160 kg/ha): 9.0
- herbicidal effect rating (ABUTH; 0.0313-0.0320 kg/ha): 9.0
- herbicidal effect rating (ABUTH; 0.0620-0.0630 kg/ha): 9.0
- herbicidal effect rating (ABUTH; 0.1250 kg/ha): 9.0
- herbicidal effect rating (ABUTH; 0.2500 kg/ha): 9.0
- herbicidal effect rating (AMBEL; 0.0156-0.0160 kg/ha): 3.0
- herbicidal effect rating (AMBEL; 0.0313-0.0320 kg/ha): 7.0
- herbicidal effect rating (AMBEL; 0.0620-0.0630 kg/ha): 8.0
- herbicidal effect rating (AMBEL; 0.1250 kg/ha): 9.0
- herbicidal effect rating (AMBEL; 0.2500 kg/ha): 9.0
- herbicidal effect rating (CASOB; 0.0156-0.0160 kg/ha): 0.5
- herbicidal effect rating (CASOB; 0.0313-0.0320 kg/ha): 2.0
- herbicidal effect rating (CASOB; 0.0620-0.0630 kg/ha): 7.0
- herbicidal effect rating (CASOB; 0.1250 kg/ha): 9.0
- herbicidal effect rating (CASOB; 0.2500 kg/ha): 8.5
- herbicidal effect rating (CHEAL; 0.0156-0.0160 kg/ha): 9.0
- herbicidal effect rating (CHEAL; 0.0313-0.0320 kg/ha): 9.0
- herbicidal effect rating (CHEAL; 0.0620-0.0630 kg/ha): 9.0
- herbicidal effect rating (CHEAL; 0.1250 kg/ha): 9.0
- herbicidal effect rating (CHEAL; 0.2500 kg/ha): 9.0
- herbicidal effect rating (ECHCG; 0.0156-0.0160 kg/ha): 0.0
- herbicidal effect rating (ECHCG; 0.0313-0.0320 kg/ha): 1.0
- herbicidal effect rating (ECHCG; 0.0620-0.0630 kg/ha): 4.5
- herbicidal effect rating (ECHCG; 0.1250 kg/ha): 7.0
- herbicidal effect rating (ECHCG; 0.2500 kg/ha): 9.0
- herbicidal effect rating (GALAP; 0.0156-0.0160 kg/ha): 1.0
- herbicidal effect rating (GALAP; 0.0313-0.0320 kg/ha): 1.0
- herbicidal effect rating (GALAP; 0.0620-0.0630 kg/ha): 6.0
- herbicidal effect rating (GALAP; 0.1250 kg/ha): 9.0
- herbicidal effect rating (GALAP; 0.2500 kg/ha): 9.0
- herbicidal effect rating (GLXMAW; 0.0156-0.0160 kg/ha): 5.0
- herbicidal effect rating (GLXMAW; 0.0313-0.0320 kg/ha): 6.0
- herbicidal effect rating (GLXMAW; 0.0620-0.0630 kg/ha): 7.5
- herbicidal effect rating (GLXMAW; 0.1250 kg/ha): 9.0
- herbicidal effect rating (GLXMAW; 0.2500 kg/ha): 8.0
- herbicidal effect rating (SETVI; 0.0156-0.0160 kg/ha): 1.5
- herbicidal effect rating (SETVI; 0.0313-0.0320 kg/ha): 2.5
- herbicidal effect rating (SETVI; 0.0620-0.0630 kg/ha): 9.0
- herbicidal effect rating (SETVI; 0.1250 kg/ha): 9.0
- herbicidal effect rating (SETVI; 0.2500 kg/ha): 9.0
- herbicidal effect rating (TRZAWR; 0.0156-0.0160 kg/ha): 1.0
- herbicidal effect rating (TRZAWR; 0.0313-0.0320 kg/ha): 2.0
- herbicidal effect rating (TRZAWR; 0.0620-0.0630 kg/ha): 4.0
- herbicidal effect rating (TRZAWR; 0.1250 kg/ha): 6.0
- herbicidal effect rating (TRZAWR; 0.2500 kg/ha): 7.0
- herbicidal effect rating (ZEAMX; 0.0156-0.0160 kg/ha): 1.5
- herbicidal effect rating (ZEAMX; 0.0313-0.0320 kg/ha): 2.5
- herbicidal effect rating (ZEAMX; 0.0620-0.0630 kg/ha): 6.5
- herbicidal effect rating (ZEAMX; 0.1250 kg/ha): 7.0
- herbicidal effect rating (ZEAMX; 0.2500 kg/ha): 7.5
- herbicidal effect rating (IPOHE; 0.0156-0.0160 kg/ha): 2.5
- herbicidal effect rating (IPOHE; 0.0313-0.0320 kg/ha): 4.0
- herbicidal effect rating (IPOHE; 0.0620-0.0630 kg/ha): 8.0
- herbicidal effect rating (IPOHE; 0.1250 kg/ha): 9.0
- herbicidal effect rating (IPOHE; 0.2500 kg/ha): 9.0
- herbicidal effect rating (ORYSAT; 0.0156-0.0160 kg/ha): 1.5
- herbicidal effect rating (ORYSAT; 0.0313-0.0320 kg/ha): 2.5
- herbicidal effect rating (ORYSAT; 0.0620-0.0630 kg/ha): 5.0
- herbicidal effect rating (ORYSAT; 0.1250 kg/ha): 6.5
- herbicidal effect rating (ORYSAT; 0.2500 kg/ha): 8.0
